Test results taken from patent publication US20230416329A1, “A PEPTIDE WITH DISULFIDE BONDS AND INHIBITORY ACTIVITY AGAINST SERINE PROTEASES, DERIVED HYBRID PEPTIDES THEREOF, AND USES THEREOF” (INSTITUTE OF MATERIA MEDICA , CHINESE ACADEMY OF MEDICAL …, priority 2020, published 2023).

What was measured:
chymotrypsin = chymotrypsin (Bos taurus, UniProt P00766); test: in vitro; details: isolated enzyme chymotrypsin, pH 7.8, Remaining peak area (%)/chymotrypsin
How it was run: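 RP-HPLC peak area tracked intact peptide after 37 °C digestion with chymotrypsin (0.05 μg/μL solution, 5 min preincubation). Samples were withdrawn at 1.5-60.0 min and stopped with 10% TFA.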

NEP24.11 = NEP24.11 (Homo sapiens, UniProt P08473); test: Tolerance of GLP-1 and its analogues to NEP24.11 (RP-HPLC remaining peak area); format: in vitro ADME; details: peptide 30 μM, NEP24.11 1.0 ng/μL, 37° C.; for Remaining peak area (%)/NEP24.11: 0.0 h; for remaining at 0.5 h, 30 μM / remaining at 2 h, 30 μM / remaining at 4 h, 30 μM / remaining at 8 h, 30 μM: isolated NEP24.11 enzyme in buffer; for remaining at 0.5 h, 30 μM: pH 7.4, 0.5 h; for remaining at 2 h, 30 μM: pH 7.4, 2.0 h; for remaining at 4 h, 30 μM: pH 7.4, 4.0 h; for remaining at 8 h, 30 μM: pH 7.4, 8.0 h, read-out: Remaining peak area (%)/NEP24.11
Description: (§1) Mix by centrifugation at 8000 rpm for 30 seconds.
Arrange a certain volume of 0.04 μg/μL NEP24.11 enzyme solution in another sterile EP.

trypsin = biological target: T1, trypsin (Bos taurus, UniProt P00760); test: in vitro; details: isolated enzyme trypsin, pH 7.8
T1 sequence (P00760 24-246): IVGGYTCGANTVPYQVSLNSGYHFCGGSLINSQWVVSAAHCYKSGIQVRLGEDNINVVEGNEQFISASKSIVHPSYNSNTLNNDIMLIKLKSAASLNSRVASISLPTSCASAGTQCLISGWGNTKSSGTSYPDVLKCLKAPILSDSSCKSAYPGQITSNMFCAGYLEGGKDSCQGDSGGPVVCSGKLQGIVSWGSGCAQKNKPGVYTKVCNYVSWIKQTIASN
How it was run: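 Remaining RP-HPLC peak area tracks undigested peptide over time. Samples were quenched with 10% TFA at time points between 1.5 and 60 min during 37 °C digestion. Trypsin was added from a 0.05 μg/μL solution after 5 min of thermal equilibration.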

DPP-IV = DPP-IV (Homo sapiens, UniProt P27487); test: Tolerance of GLP-1 and its analogues to DPP-IV (RP-HPLC remaining peak area); format: in vitro ADME; details: peptide 25 μM, DPP-IV 0.5 ng/μL, 37° C.; for Remaining peak area (%)/DPP-IV: 0.0 h; for remaining at 0.5 h, 25 μM / remaining at 2 h, 25 μM / remaining at 4 h, 25 μM / remaining at 8 h, 25 μM / remaining at 12 h, 25 μM: isolated DPP-IV enzyme in buffer, pH 8
Description: as §1
(2) Arrange a certain volume of 0.005 μg/μL DPP-IV solution in another sterile EP.

[1] = Stability of GLP-1 and its analogues in human serum; details: 25% (v/v) human serum; for Remaining peak area (%)/human serum: 0.0 h, peptide 0.03 mM, 37° C.; for remaining at 0.5 h, 0.03 mM / remaining at 2 h, 0.03 mM / remaining at 4 h, 0.03 mM / remaining at 8 h, 0.03 mM / remaining at 12 h, 0.03 mM: human, pH 7

Sequence of DPP-IV (P27487 whole entry, species assumed): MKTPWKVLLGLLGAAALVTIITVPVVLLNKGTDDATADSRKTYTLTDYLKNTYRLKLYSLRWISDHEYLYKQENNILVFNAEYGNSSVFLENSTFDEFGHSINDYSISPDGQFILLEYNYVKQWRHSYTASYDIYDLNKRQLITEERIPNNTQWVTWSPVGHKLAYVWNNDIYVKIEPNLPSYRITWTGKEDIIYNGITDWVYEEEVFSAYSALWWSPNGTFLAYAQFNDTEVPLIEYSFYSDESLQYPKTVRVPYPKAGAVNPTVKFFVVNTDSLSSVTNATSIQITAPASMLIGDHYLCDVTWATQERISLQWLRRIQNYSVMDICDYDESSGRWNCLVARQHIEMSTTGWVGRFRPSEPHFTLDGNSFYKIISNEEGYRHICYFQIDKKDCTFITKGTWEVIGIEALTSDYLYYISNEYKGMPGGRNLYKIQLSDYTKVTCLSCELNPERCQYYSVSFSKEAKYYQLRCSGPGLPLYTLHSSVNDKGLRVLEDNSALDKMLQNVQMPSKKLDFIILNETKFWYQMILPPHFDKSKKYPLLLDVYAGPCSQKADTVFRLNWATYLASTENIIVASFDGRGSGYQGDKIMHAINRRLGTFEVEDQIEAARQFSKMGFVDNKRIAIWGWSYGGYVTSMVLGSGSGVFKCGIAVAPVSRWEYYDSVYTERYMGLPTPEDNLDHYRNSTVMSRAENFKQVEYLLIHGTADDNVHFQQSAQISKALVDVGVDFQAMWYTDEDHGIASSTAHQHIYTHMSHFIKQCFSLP
Sequence of NEP24.11 (P08473 whole entry): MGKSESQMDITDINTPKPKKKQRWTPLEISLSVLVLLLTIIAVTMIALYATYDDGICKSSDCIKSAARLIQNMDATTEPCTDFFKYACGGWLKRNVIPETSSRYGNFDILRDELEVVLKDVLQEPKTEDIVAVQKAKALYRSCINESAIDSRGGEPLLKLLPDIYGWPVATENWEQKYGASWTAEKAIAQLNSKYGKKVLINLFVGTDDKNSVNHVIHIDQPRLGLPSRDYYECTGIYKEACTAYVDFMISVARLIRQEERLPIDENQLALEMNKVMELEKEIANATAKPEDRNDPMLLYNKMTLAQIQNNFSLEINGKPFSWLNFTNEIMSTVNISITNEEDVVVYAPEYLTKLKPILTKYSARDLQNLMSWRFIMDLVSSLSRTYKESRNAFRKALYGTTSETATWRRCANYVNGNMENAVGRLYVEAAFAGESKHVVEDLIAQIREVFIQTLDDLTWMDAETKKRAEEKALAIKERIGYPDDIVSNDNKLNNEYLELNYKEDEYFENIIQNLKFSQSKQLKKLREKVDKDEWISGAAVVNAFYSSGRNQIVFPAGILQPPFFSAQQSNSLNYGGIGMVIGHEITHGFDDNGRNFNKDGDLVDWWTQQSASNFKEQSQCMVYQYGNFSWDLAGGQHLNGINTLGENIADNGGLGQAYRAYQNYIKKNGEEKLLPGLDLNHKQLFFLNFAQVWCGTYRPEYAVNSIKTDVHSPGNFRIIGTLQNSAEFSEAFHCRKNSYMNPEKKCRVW

Compound	remaining at 0.025 h, 60 μM (chymotrypsin)	remaining at 0.075 h, 60 μM (chymotrypsin)	remaining at 0.1 h, 60 μM (chymotrypsin)	remaining at 0.15 h, 60 μM (chymotrypsin)	Remaining peak area (%)/NEP24.11 (NEP24.11)	remaining at 0.5 h, 30 μM (NEP24.11)	remaining at 2 h, 30 μM (NEP24.11)	remaining at 4 h, 30 μM (NEP24.11)	remaining at 8 h, 30 μM (NEP24.11)	remaining at 0.025 h, 60 μM (trypsin)	remaining at 0.05 h, 60 μM (trypsin)	remaining at 0.075 h, 60 μM (trypsin)	remaining at 0.1 h, 60 μM (trypsin)	remaining at 0.15 h, 60 μM (trypsin)	remaining at 0.25 h, 60 μM (trypsin)	remaining at 0.5 h, 60 μM (trypsin)	remaining at 1 h, 60 μM (trypsin)	Remaining peak area (%)/DPP-IV (DPP-IV)	remaining at 0.5 h, 25 μM (DPP-IV)	remaining at 2 h, 25 μM (DPP-IV)	other results
CC[C@H](C)[C@H](NC(=O)[C@H](Cc1ccccc1)NC(=O)[C@H](CCC(=O)O)NC(=O)[C@H](CCCCN)NC(=O)[C@H](C)NC(=O)[C@H](C)NC(=O)[C@H](CCC(N)=O)NC(=O)CNC(=O)[C@H](CCC(=O)O)NC(=O)[C@H](CC(C)C)NC(=O)[C@H](Cc1ccc(O)cc1)NC(=O)[C@H](CO)NC(=O)[C@H](CO)NC(=O)[C@@H](NC(=O)[C@H](CC(=O)O)NC(=O)[C@H](CO)NC(=O)[C@@H](NC(=O)[C@H](Cc1ccccc1)NC(=O)[C@@H](NC(=O)CNC(=O)[C@H](CCC(=O)O)NC(=O)[C@H](C)NC(=O)[C@H](Cc1c[nH]cn1)NC(=O)CNC(=O)CNC(=O)[C@@H](NC(=O)[C@@H]1CCCN1C(=O)[C@@H](NC(=O)CNC(=O)CNC(=O)[C@@H]1CCCN1C(=O)[C@H](Cc1ccccc1)NC(=O)[C@@H]1CSSC[C@H](NC(=O)[C@H](CCCNC(=N)N)NC(=O)CN)C(=O)N[C@@H]([C@@H](C)O)C(=O)N[C@@H](CCCCN)C(=O)N[C@@H](CO)C(=O)N[C@@H]([C@@H](C)CC)C(=O)N2CCC[C@H]2C(=O)N2CCC[C@H]2C(=O)N[C@@H]([C@@H](C)CC)C(=O)N1)[C@@H](C)CC)[C@@H](C)CC)[C@@H](C)O)[C@@H](C)O)C(C)C)C(=O)N[C@@H](C)C(=O)N[C@@H](Cc1c[nH]c2ccccc12)C(=O)N[C@@H](CC(C)C)C(=O)N[C@H](C(=O)N[C@@H](CCCCN)C(=O)NCC(=O)N[C@@H](CCCNC(=N)N)C(=O)NCC(=O)NCC(=O)N[C@@H](CCCCN)C(=O)O)C(C)C [BT1-D-GLP-1]	68.7 ± 1.6%	57.4 ± 2.7%	53.1 ± 0.5%	49.8 ± 2.8%	100.0 ± 0.0%	88.2 ± 2.4%	85.2 ± 0.5%	79.1 ± 3.2%	74 ± 1.3%	97.3 ± 8.8%	96.6 ± 2%	90.4 ± 2.4%	90.3 ± 2.5%	89.7 ± 3.4%	87.3 ± 2.6%	88.6 ± 4.4%	87.7 ± 6.2%	100.0 ± 0.0%	72.3 ± 2.4%	75.3 ± 1.5%	remaining at 0.05 h, 60 μM (chymotrypsin): 61.9 ± 1.5%; remaining at 4 h, 25 μM (DPP-IV): 72.6 ± 2%; remaining at 8 h, 25 μM (DPP-IV): 82 ± 3.2%; remaining at 12 h, 25 μM (DPP-IV): 82.5 ± 4.9%; Remaining peak area (%)/human serum [1]: 100.0 ± 0.0%; serum stability (in words) [1]: good serum stability; remaining at 0.5 h, 0.03 mM [1]: 68.9 ± 7.1%; remaining at 2 h, 0.03 mM [1]: 95.1 ± 7.5%; remaining at 4 h, 0.03 mM [1]: 89.4 ± 7.9%; remaining at 8 h, 0.03 mM [1]: 54.8 ± 4.1%; remaining at 12 h, 0.03 mM [1]: 49.7 ± 2.5%
CC[C@H](C)[C@H](NC(=O)[C@H](Cc1ccccc1)NC(=O)[C@H](CCC(=O)O)NC(=O)[C@H](CCCCN)NC(=O)[C@H](C)NC(=O)[C@H](C)NC(=O)[C@H](CCC(N)=O)NC(=O)CNC(=O)[C@H](CCC(=O)O)NC(=O)[C@H](CC(C)C)NC(=O)[C@H](Cc1ccc(O)cc1)NC(=O)[C@H](CO)NC(=O)[C@H](CO)NC(=O)[C@@H](NC(=O)[C@H](CC(=O)O)NC(=O)[C@H](CO)NC(=O)[C@@H](NC(=O)[C@H](Cc1ccccc1)NC(=O)[C@@H](NC(=O)CNC(=O)[C@H](CCC(=O)O)NC(=O)[C@H](C)NC(=O)[C@H](Cc1c[nH]cn1)NC(=O)CNC(=O)CNC(=O)[C@@H](NC(=O)[C@@H]1CCCN1C(=O)[C@@H](NC(=O)CNC(=O)CNC(=O)[C@H](Cc1ccccc1)NC(=O)[C@@H]1CSSC[C@H](N)C(=O)NCC(=O)N[C@@H](CCCNC(=N)N)C(=O)N[C@@H](C)C(=O)N[C@@H]([C@@H](C)O)C(=O)N[C@@H](CCCCN)C(=O)N[C@@H](CO)C(=O)N[C@@H]([C@@H](C)CC)C(=O)N2CCC[C@H]2C(=O)N2CCC[C@H]2C(=O)N[C@@H]([C@@H](C)CC)C(=O)N1)[C@@H](C)CC)[C@@H](C)CC)[C@@H](C)O)[C@@H](C)O)C(C)C)C(=O)N[C@@H](C)C(=O)N[C@@H](Cc1c[nH]c2ccccc12)C(=O)N[C@@H](CC(C)C)C(=O)N[C@H](C(=O)N[C@@H](CCCCN)C(=O)NCC(=O)N[C@@H](CCCNC(=N)N)C(=O)NCC(=O)NCC(=O)N[C@@H](CCCCN)C(=O)O)C(C)C [BT9-D-GLP-1]	54.9 ± 6.6%	28.7 ± 2.4%	19.2 ± 1.3%	9 ± 0.9%	100.0 ± 0.0%	79.8 ± 3.5%	60.2 ± 1.8%	56.1 ± 3.4%	48.4 ± 1.4%	76.6 ± 3%	76.7 ± 9.1%	77 ± 2.4%	79.2 ± 3.1%	80.2 ± 1%	79.1 ± 2.2%	75.8 ± 3.8%	77.7 ± 0.5%	100.0 ± 0.0%	81.1 ± 1%	77.9 ± 2.9%	remaining at 4 h, 25 μM (DPP-IV): 79.1 ± 1.3%; remaining at 8 h, 25 μM (DPP-IV): 78.8 ± 0.6%; remaining at 12 h, 25 μM (DPP-IV): 72.4 ± 1.9%; Remaining peak area (%)/human serum [1]: 100.0 ± 0.0%; serum stability (in words) [1]: good serum stability; remaining at 0.5 h, 0.03 mM [1]: 65.6 ± 14.7%; remaining at 2 h, 0.03 mM [1]: 38.5 ± 13.3%; remaining at 4 h, 0.03 mM [1]: 28%; remaining at 8 h, 0.03 mM [1]: 13.7%; remaining at 12 h, 0.03 mM [1]: 19.6 ± 1.2%
